Patent US20250326779A1, “ANTI-HIV COMPOUNDS” (priority 2024, published 2025)
In brackets after ≈: the same amount, converted by molar mass. Values belong to the compound of their own block, whether it stands above or below them.

Legend:
pH 7 Stability Assay = format: physicochemical; settings: ACN/pH 7.4 buffer with 1% DMSO stock; 1/49.5/49.5% v/v DMSO stock/ACN/pH 7.4 buffer, UPLC 0-24 h; read-out: pH7 T½
Description: pH 7 Stability Assay: A sample stock at approximately 10 mg/mL of each test compound was prepared with dimethyl sulfoxide (DMSO) in vials. […] Sample vials were prepared by adding 495 μL ACN into a UPLC vial followed by 495 μL pH 7.4 buffer. Then 10 μL test compound stock solution from the first step was added to that UPLC vial. 1000 uL 50/50% v/v ACN/Water was used as diluent blank.
Metabolic stabilities were determined by measuring the rates of disappearance of test compound and positive control substrate. • Data (% of substrate remaining) were plotted on a semi-log scale and fitted using an exponential decline model:
[formula] • Assuming a first-order reaction, the slope (k) is extrapolated from the aforementioned plotted data.

[1] = molecular target: T1, bovine intestinal alkaline phosphatase (Bos taurus, UniProt P19111); test: BiALP: conversion by bovine intestinal alkaline phosphatase; format: in vitro ADME; settings: remaining substrate after 60 min at 37° C., 2 μM substrate, 100 ng/mL iALP, Tris buffer pH 7.8
T1 construct: purchased Millipore Sigma (St. Louis, MO) or Thermo Fisher Scientific (Waltham, MA)
Description: Fosamprenavir and its parent compound (amprenavir) were purchased from Millipore Sigma (St. Louis, MO). Test compounds, Intermediate A, fosamprenavir, and amprenavir were each separately dissolved in dimethyl sulfoxide (DMSO) at a concentration of 10 mM to form stock solutions.
All other chemicals were purchased from Millipore Sigma (St. Louis, MO) and Thermo Fisher Scientific (Waltham, MA). The chemicals included purified bovine intestinal alkaline phosphatase as a lyophilized powder (specific activity: 101 diethanolamine units/mg solid). Internal Standard/Quench (IS/Q) was 100 nM labetalol in 99:1 (v/v) acetonitrile/formic acid.
Incubations were performed with Tris buffer alone (0.1 M Tris-HCl pH 7.8 containing 1 mM MgCl2 and 1 mM ZnCl2) or the same Tris buffer further containing 100 ng/mL iALP (0.01 units/mL). Triplicate 100 μL aliquots of Tris buffer±iALP were warmed to 37° C. and the reactions were initiated by the addition of the test compound or fosamprenavir to obtain final substrate concentrations of 2 μM. Incubations were then continued at 37° C. […] Aliquots (15 μL) of the diluted supernatants were analyzed by mass spectrometry as described below.
Quantification of the test compounds and fosamprenavir was performed by analyte/internal standard peak area ratios (PARs) with comparison to 2 μM Intermediate A and amprenavir, respectively. […]

[2] = Intestinal S9 Assay (human); format: in vitro ADME; settings: pooled intestinal S9 fraction, 1.0 mg/mL S9 protein, 2 μM substrate, TRIS pH 7.4, read-out: Human GI S9 T½
Description: (§1) Reagents. Stock solutions of test compounds in dimethyl sulfoxide (DMSO) having a final concentration of 10 mM were prepared and used in all experiments. Sekisui XenoTech (Kansas City, KS) provided pooled intestinal S9 fractions. All other chemicals were purchased from Sigma-Aldrich (St. Louis, MO) or VWR (West Chester, PA).
(§2) Intestinal S9 Assay: For each test compound, an aliquot of the test compound was added to S9 stock diluted with TRIS buffer (100 mM TRIS, 1 mM ZnCl2, 1 mM MgCl2), pH 7.4, to obtain an incubation protein concentration of 1.0 mg/mL. The incubation was initiated by the addition of the substrate to the S9 reaction mixture to a final concentration of 2 μM. […] After quenching, the plates were centrifuged at 3000×g for 30 minutes. 150 μL aliquots of each supernatant were transferred to new plates and 150 μL water was added. Aliquots (10 μL) of the prepared samples were analyzed on a Thermo Q-Exactive mass spectrometer as described below.
(§3) Liquid Chromatography-Mass Spectrometry: Quantification of test compounds and control substrate was performed by analyte/internal standard peak area ratio (PAR) values measured on a Thermo Q-Exactive mass spectrometer coupled to a Dionex UltiMate 3000 HPLC with a Leap Technologies HTC PAL autosampler. The column used for analysis was a Thermo Scientific Hypersil GOLD (1.9 μm particle size, 50×2.1 mm). […]

[3] = Intestinal S9 Assay (dog); format: in vitro ADME; settings: pooled intestinal S9 fraction, 1.0 mg/mL S9 protein, 2 μM substrate, TRIS pH 7.4, read-out: Dog GI S9 T½
Description: as §1, §2, §3

Solubility in FaSSIF = format: physicochemical; settings: 23 °C, thermodynamic from solid; FaSSIF pH 6.5, 5 mg/mL dose concentration, 2-hour incubation, ambient temperature
Description: Buffer Preparation: Fasted State Simulated Intestinal Fluid (FaSSIF): Simulated Intestinal Fluid (SIF) powder containing a complex of Taurocholate and Lecithin (4:1 molar ratio) was obtained from Biorelevant. […] The buffer was prepared with HPLC H2O.
Test Compounds: Each test compound was placed in a vial containing approximately 7 mg of material. Aliquots were weighed out for each assay media at each time point to be analyzed. The buffer was added to each vial such that the final dose concentration of 5 mg/mL was achieved. Samples were then vortexed for 5-10 seconds.
The plate was sealed with a pierceable heat seal and analyzed by HPLC-UV.

HIV-1 IIIB strain = test: MT-4 HIV Wild Type Virus Infection Assay (IIIB Virus); format: cell-based; settings: Human immunodeficiency virus 1, MT4, 120 h; MT-4 cells acutely infected with HIV-1 IIIB, 5 day incubation, Cell-titer glo
Description: MT-4 HIV Wild Type Virus Infection Assay (IIIB Virus)
Test compounds and controls were serially diluted and spotted in replicate into 384 well black assay plates via acoustic transfer (Echo). MT-4 cells were grown in batch, centrifuged and resuspended into fresh CCM media (RPMI w/10% FBS, 1% PS) at 2×10^6 cells/ml. MT-4 cells were acutely infected with HIV-1 IIIB strain. The size of each infection mix was scaled by the number of sample plates to be tested. Each infection mix was transferred into 5 mL closed tubes and nutated rapidly on a shaker at 37° C. incubator for 1 hour. The infection mixes were then diluted 25× in fresh cell culture media and then added to assay plates at 40 μL per well using a ViaFlo 384 pipettor. After 5 day incubation at 37° C. in a C02 incubator, assay plates were processed with Cell-titer glo reagent using a ViaFlo 384 with an addition/mixing program. Plates were read immediately on Envision reader. Assay signals were plotted and dose response curves generated to determine individual compound EC50s.

T1 sequence (P19111 20-506 limits assumed): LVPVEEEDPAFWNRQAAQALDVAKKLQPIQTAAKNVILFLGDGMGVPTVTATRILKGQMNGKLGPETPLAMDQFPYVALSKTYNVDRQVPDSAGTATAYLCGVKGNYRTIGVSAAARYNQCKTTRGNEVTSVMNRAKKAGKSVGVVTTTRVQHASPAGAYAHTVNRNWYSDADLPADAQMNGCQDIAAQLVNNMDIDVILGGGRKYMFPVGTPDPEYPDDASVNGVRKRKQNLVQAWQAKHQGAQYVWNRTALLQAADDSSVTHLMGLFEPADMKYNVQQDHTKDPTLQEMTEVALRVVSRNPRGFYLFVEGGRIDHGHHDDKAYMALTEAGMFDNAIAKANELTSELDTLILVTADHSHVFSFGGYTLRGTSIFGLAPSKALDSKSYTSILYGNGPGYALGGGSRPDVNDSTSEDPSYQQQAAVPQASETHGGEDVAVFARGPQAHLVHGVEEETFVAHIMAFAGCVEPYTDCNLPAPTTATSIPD

SMILES: COC(=O)N[C@H](C(=O)N[C@@H](Cc1ccc(C#Cc2cnc(N3CC4CCC(C3)N4C3COC3)nc2)cc1)[C@H](CN(Cc1c(F)cc(-c2ccn(C(F)F)n2)cc1F)NC(=O)[C@@H](NC(=O)OC)C(C)(C)C(F)(F)F)OCOP(=O)(O)O)C(C)(C)C(F)(F)F [Compound 1, methyl ((5S,8S,9S,14S)-11-(4-(1-(difluoromethyl)-1H-pyrazol-3-yl)-2,6-difluorobenzyl)-16,16,16-trifluoro-15,15-dimethyl-8-(4-((2-(8-(oxetan-3-yl)-3,8-diazabicyclo[3.2.1]octan-3-yl)pyrimidin-5-yl)ethynyl)benzyl)-3,6,13-trioxo-9-((phosphonooxy)methoxy)-5-(1,1,1-trifluoro-2-methylpropan-2-yl)-2-oxa-4,7,11,12-tetraazahexadecan-14-yl)carbamate]
half-life at 0.1 mg/mL (pH 7 Stability Assay): > 480 h
[Compound] [1]: 1691 nM
half-life at 2 μM [2]: 0.787 h
half-life at 2 μM [3]: 1.36 h
solubility at 2 h (Solubility in FaSSIF): 580 µg/mL (≈ 458 µM)
EC50 (HIV-1 IIIB strain): 22.3 nM

[Compound] [1]: 1605 nM
SMILES: CC(C)CN(C[C@@H](OP(=O)(O)O)[C@H](Cc1ccccc1)NC(=O)O[C@H]1CCOC1)S(=O)(=O)c1ccc(N)cc1 [Fosamprenavir, reference compound]
